Values of other authors as cited in US20210059959A1, “USE OF CANNABINOIDS IN THE TREATMENT OF MENTAL DISORDERS” (GW Pharma Limited, priority 2015, published 2021).

Tested on: positive or negative symptoms of schizophrenia
Conditions: placebo-controlled clinical trial; cited from earlier work

Question: Which “Effect on positive or negative symptoms of schizophrenia” value does the source give for `Cc1c(C(=O)NN2CCCCC2)nn(-c2ccc(Cl)cc2Cl)c1-c1ccc(Cl)cc1` [rimonabant] here?
Answer: The value was “no effect”.
